Counter-ions that a name gives are not always drawn.
Assays:
[1] = test system: plasma renin activity / blood pressure; details: clinical test in patients with hypertension; cited from earlier work
Recombinant human renin = target: T1, Recombinant human renin (Homo sapiens, UniProt P00797); test: In vitro renin inhibitory activity assay (fluorescence, FRET peptide substrate); type: biochemical; details: 37° C., one hour, substrate 4 μM, pH 7.4
T1 sequence (P00797 67-406): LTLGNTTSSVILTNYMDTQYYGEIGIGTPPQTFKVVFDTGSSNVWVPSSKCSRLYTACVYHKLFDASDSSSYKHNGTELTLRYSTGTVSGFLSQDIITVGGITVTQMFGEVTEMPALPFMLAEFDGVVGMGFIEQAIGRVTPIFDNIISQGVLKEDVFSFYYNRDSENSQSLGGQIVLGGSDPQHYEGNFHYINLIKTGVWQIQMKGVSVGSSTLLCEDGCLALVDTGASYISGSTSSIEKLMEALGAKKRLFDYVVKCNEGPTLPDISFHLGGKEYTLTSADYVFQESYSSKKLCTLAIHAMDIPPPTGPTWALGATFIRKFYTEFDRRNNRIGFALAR
Method: In Vitro Renin Inhibitory Activity Assay
Recombinant human renin (50 ng) was reacted in 0.1M BEPES buffer (pH 7.4) containing 0.1M NaCl, 1 mM EDTA and 0.1 mg/mL BSA together with a substrate and a test compound at 37° C. for one hour. As the substrate, Arg-Glu(EDANS)-Ile-His-Pro-Phe-His-Leu-Val-Ile-His-Thr-Lys(DABCYL)-Arg or DABCYL-γ-Abu-Ile-His-Pro-Phe-His-Leu-Val-Ile-His-Thr-EDANS was added in such an amount so that the final concentration thereof became 4 μM. The elevated fluorescence intensity at the exciting wavelength 340 nm and the fluorescence wavelength 500 nm was measured by a fluorescence plate reader. The concentration of a test compound to be needed to inhibit an enzyme activity in the presence of a test compound in plural concentrations by 50% was calculated as an IC50 value.
The amino acid sequence disclosed in Seq ID:1 is an amino acid sequence used in the renin inhibitory activity assay.
The amino acid sequence disclosed in Seq ID:2 is an amino acid sequence used in the renin inhibitory activity assay.

Row | IC50 (Recombinant human renin) | SMILES | hypotensive activity [1] | plasma renin activity [1]
1 | – | COCCCOc1cc(C[C@@H](C[C@H](N)[C@@H](O)C[C@H](C(=O)NCC(C)(C)C(N)=O)C(C)C)C(C)C)ccc1OC [aliskiren] | excellent hypotensive activity comparable to other RA system inhibitors | significantly inhibits plasma renin activity
2 | 0.11 µM | CCCN(CCc1ccccc1)C(=O)OC[C@@H]1CNC[C@H](N(C(=O)c2ccc(OC)c(OCCCOC)c2)C(C)C)C1 (racemic) [Example 59] | – | –
3 | 0.0051 µM | COCCCOc1cc(C(=O)N(C(C)C)[C@@H]2CC[C@H](CCN(C(=O)Cc3ccccc3C(F)(F)F)C3CC3)NC2)ccc1OC [Example 74, N-{(3R,6R)-6-[2-(Cyclopropyl{[2-(trifluoromethyl)phenyl]acetyl}amino)ethyl]-piperidin-3-yl}-N-isopropyl-4-methoxy-3-(3-methoxypropoxy)benzamide trifluoroacetate] | – | –
4 | 0.43 µM | COCCCOc1cc(C(=O)N(C(C)C)C2CNC[C@@H](C(=O)N(C)Cc3ccccc3)C2)ccc1OC (mixture of isomers) [Example 41, (rac.)-(3S,5R)-N-Benzyl-5-{isopropy[4-methoxy-3-(3-methoxyproroxy)benzoyl]-amino}-N-methylpiperidine-3-carboxamide hydrochloride] | – | –
5 | 0.0217 µM | COCCCCN1C(=O)C(C)(C)Oc2ccc(C(=O)N(C(C)C)[C@@H]3CCCNC3)cc21 [Example 126, N-Isopropyl-4-(4-methoxybutyl)-2,2-dimethyl-3-oxo-N-[(3R)-piperidin-3-yl]-3,4-dihydro-2H-1,4-benzoxazine-6-carboxyamide hydrochloride] | – | –
6 | 0.33 µM | COCCCOc1cc(C(=O)N(C(C)C)[C@@H]2CCCNC2)ccc1OC [Example 1, N-Isopropyl-4-methoxy-3-(3-methoxypropoxy)-N-[(3R)-piperidin-3-yl]benzamide hydrochloride] | – | –
7 | 0.004 µM | COCCCOc1cc(C(=O)N(C(C)C)[C@@H]2CC[C@H](CCN(C(=O)Cc3cccc(C(=O)O)c3)C3CC3)NC2)ccc1OC [Example 86, 3-(2-{Cyclopropyl[2-((2R,5R)-5-{isopropyl[4-methoxy-3-(3-methoxypropoxy)-benzoyl]amino}piperidin-2-yl)ethyl]amino}-2-oxoethyl)benzoic acid hydrochloride] | – | –
8 | 0.0047 µM | COCCCOc1cc(C(=O)N(C(C)C)[C@@H]2CC[C@H](CCN(C(=O)Cc3ccccn3)C3CC3)NC2)ccc1OC [Example 75, N-((3R,6R)-6-{2-[Cyclopropyl(pyridin-2-ylacetyl)amino]ethyl}piperidin-3-yl)-N-isopropyl-4-methoxy-3-(3-methoxypropoxy)benzamide trifluoroacetate] | – | –
9 | 0.69 µM | COCCCOc1cc(C(=O)N(C(C)C)[C@@H]2CC[C@H](CCN(C(=O)Cc3ccccc3)C(C)C)NC2)ccc1OC (racemic) [Example 55, N-Isopropyl-N-((rac.)-(3R,6R)-6-{2-[isopropyl(phenylacetyl)amino]ethyl}piperidin-3-yl)-4-methoxy-3-(3-methoxypropoxy)benzamide hydrochloride] | – | –
10 | 0.48 µM | CCN(C(=O)C[C@H]1CC[C@@H](N(C(=O)c2ccc(OC)c(OCCCOC)c2)C(C)C)CN1)C(C)C (racemic) [Example 22, N-((rac.)-(3R,6R)-6-{2-[Ethyl(isopropyl)amino]-2-oxoethyl}piperidin-3-yl)-N-isopropyl-4-methoxy-3-(3-methoxypropoxy)benzamide hydrochloride] | – | –
11 | 0.15 µM | CCN(CCc1ccccc1)C(=O)OC[C@@H]1CNC[C@H](N(C(=O)c2ccc(OC)c(OCCCOC)c2)C(C)C)C1 (racemic) [Example 58] | – | –
12 | 0.22 µM | COCCCOc1cc(C(=O)N(C(C)C)[C@@H]2CCCNC2)c(Cl)cc1OC [Example 53, 2-Chloro-N-isopropyl-methoxy-5-(3-methoxypropoxy)-N-[(3R)-piperidin-3-yl]-benzamide hydrochloride] | – | –
13 | 0.79 µM | COCCCOc1cc(C(=O)N(C(C)C)[C@H]2CNC[C@@H](COc3ccccc3-c3ccccc3)C2)ccc1OC (racemic) [Example 46, N-{(rac.)-(3R,5S)-5-[(Biphenyl-2-yloxy)methyl]piperidin-3-yl}-N-isopropyl-4-methoxy-3-(3-methoxypropoxy)benzamide hydrochloride] | – | –
14 | 0.41 µM | COCCCOc1cc(C(=O)N(C(C)C)[C@H]2CNCC[C@@H]2c2ccccc2)ccc1OC (racemic) [Example 45, N-Isopropyl-4-methoxy-3-(3-methoxypropoxy)-N-[(rac.)-(3R,4R)-4-phenylpiperidin-3-yl]benzamide hydrochloride] | – | –
15 | 0.19 µM | COCCCOc1cc(C(=O)N(C(C)C)[C@@H]2CCCNC2)c(C)cc1OC [Example 27, N-Isopropyl-4-methoxy-5-(3-methoxypropoxy)-2-methyl-N-[(3R)-piperidin-3-yl]-benzamide] | – | –
